Experimental data from paper PMC9224512, “New Insights into the Determinants of Specificity in Human Type I Arginase: Generation of a Mutant That Is Only Active with Agmatine as Substrate” (International Journal of Molecular Sciences, 2022).
Changes are numbered by the printed parent chain. Values joined by “and” are separate entries in the source; they are usually repeats but may differ in a detail not shown here. Equal entries are not always repeated.

Legend:
Format in all cases: biochemical
[1] = biological target: T1, WT-arginase (human arginase type I) (Homo sapiens, UniProt P05089); experiment: Kinetic and inhibition studies, wild-type human arginase type I
T1 construct: made in house; host or cells: E. coli JM109
T1 sequence (P05089 1-322): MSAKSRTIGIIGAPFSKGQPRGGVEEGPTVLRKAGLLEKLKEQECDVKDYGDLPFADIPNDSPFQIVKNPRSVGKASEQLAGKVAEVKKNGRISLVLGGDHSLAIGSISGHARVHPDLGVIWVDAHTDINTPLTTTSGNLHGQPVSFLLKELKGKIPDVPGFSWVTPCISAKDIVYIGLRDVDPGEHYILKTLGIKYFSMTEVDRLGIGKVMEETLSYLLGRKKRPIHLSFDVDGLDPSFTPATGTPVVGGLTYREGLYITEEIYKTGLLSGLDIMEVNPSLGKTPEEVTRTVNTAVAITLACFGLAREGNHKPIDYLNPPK
Procedure: (§1) Bacterial cultures were grown with shaking at 37 °C in Luria Broth media, in the presence of ampicillin (100 μg/mL). The wild-type and mutant human liver arginase cDNAs were directionally cloned into the pBluescript II KS(+) expression vector and then expressed in E. coli JM109, following induction with 1 mM isopropyl β-D-thiogalactopyranoside. The bacterial cells were disrupted by sonication on ice (5 × 30 s pulses), centrifuged for 20 min at 12,000× g, and the obtained supernatant was precipitated with ammonium sulfate (60% saturation). The pellet, collected by centrifugation at 12,000× g for 10 min, was re-suspended in buffer 5 mM Tris–HCl (pH 7.5) containing 2 mM MnCl2 and dialyzed for 6 h at 4 °C against the same buffer. After incubation with 5 mM MnCl2 for 10 min at 60 °C, the enzyme variants were purified as previously described. The purity of the enzymes was evaluated by SDS–PAGE stained by Coomassie blue and immunodetection using an anti- rat arginase I antibody.
(§2) All assays were initiated by adding the enzyme to a previously equilibrated buffer with the substrate in solution (the concentrations of used substrates were between 0.2–3 fold the Km). Urea was determined by a colorimetric method with α-isonitrosopropiophenone. The protein concentrations were determined by the Bradford’s method, with bovine serum albumin as standard. Initial velocity and enzymatic inhibition experiments were performed in duplicate and repeated three times. The inhibitory patterns were initially determined by double reciprocal plots and re-plots of intercepts and slopes versus inhibitor concentrations. […] Velocities are expressed as μmol of urea/10 min.

[2] = biological target: T2, human arginase type I S137C (Homo sapiens, UniProt P05089, S137C); experiment: Kinetic and inhibition studies, S137C mutant
T2 sequence (P05089 1-322 S137C): T1 sequence (P05089 1-322) with S137C
Procedure: as §1
(§3) The single, double, triple, and chimera variants of human arginase type I were obtained by PCR, using the QuickChange site-directed mutagenesis kit (Stratagene, La Jolla, CA, USA); the plasmid pBluescript II KS(+) containing the human liver arginase cDNA was used as template. To obtain the chimeric species of human arginase type I, serial mutations were made in each loop to be modified, using as template DNA the wild-type arginase gene or the previous done mutation, subcloned in the plasmid pBluescript II KS (+). Specifically, the residues present in the arginase structure were replaced by those corresponding to the agmatinase sequence of E. coli.
as §2

[3] = biological target: T3, human arginase type I S137C-N139D (Homo sapiens, UniProt P05089, N139D/S137C); experiment: Kinetic and inhibition studies, S137C-N139D mutant
T3 construct: made in house; host or cells: E. coli JM109
T3 sequence (P05089 1-322 S137C/N139D): T1 sequence (P05089 1-322) with S137C, N139D
Procedure: as §1, §3
All assays were initiated by adding the enzyme to a previously equilibrated buffer with the substrate in solution (the concentrations of used substrates were between 0.2–3 fold the Km). Urea was determined by a colorimetric method with α-isonitrosopropiophenone. The protein concentrations were determined by the Bradford’s method, with bovine serum albumin as standard. […]

[4] = biological target: T4, type I human arginase D181T/V182E (Homo sapiens, UniProt P05089, D181T/V182E); experiment: Kinetic and inhibition studies, D181T/V182E double mutant; conditions: substrate arginine
T4 construct: made in house; host or cells: E. coli JM109
T4 sequence (P05089 1-322 D181T/V182E): T1 sequence (P05089 1-322) with D181T, V182E
Procedure: as §1, §3, §2

[5] = biological target: T5, type I human arginase D181T/V182E + ins F (Homo sapiens, UniProt P05089, D181E/D181T/INS180T/V182E/V182F); experiment: Kinetic and inhibition studies, D181T/V182E + ins F; conditions: substrate arginine
T5 sequence (P05089 with tags, fused parts or gaps INS180T/D181E/V182F): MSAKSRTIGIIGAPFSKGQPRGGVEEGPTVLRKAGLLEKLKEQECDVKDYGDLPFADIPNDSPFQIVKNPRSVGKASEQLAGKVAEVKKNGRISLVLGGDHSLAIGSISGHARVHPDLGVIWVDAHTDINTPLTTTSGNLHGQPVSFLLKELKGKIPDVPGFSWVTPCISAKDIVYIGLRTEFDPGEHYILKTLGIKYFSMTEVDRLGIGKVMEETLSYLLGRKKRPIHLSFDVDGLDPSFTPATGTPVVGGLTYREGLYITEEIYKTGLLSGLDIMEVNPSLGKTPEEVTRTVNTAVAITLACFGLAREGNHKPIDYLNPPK
Procedure: as §1, §3, §2

[6] = substrate = labelled compound, pH 9.5, 2 mM Mn2+

SMILES | Km [1, 6] | kcat ([1]; substrate = labelled compound, pH 9.5, 2 mM Mn2+, n/a = no activity with the substrate) | kcat ([2]; substrate = labelled compound) | Km [2, 6] | kcat ([3]; substrate = labelled compound) | Km [3, 6] | kcat [4] | Km ([4]; pH 9.5, 2 mM Mn2+) | kcat [5] | kcat, times lower than the wild-type arginase [5] | Km ([5]; pH 9.5, 2 mM Mn2+) | Inhibition type ([1]; substrate arginine) | Kis (Ki) ([1]; substrate arginine, pH 9.5) | Ki ([2]; read-out: Ki^orn) | Ki ([3]; read-out: Ki^orn) | Inhibition type [4] | Kis (Ki) [4] | Inhibition type [5] | Kis [5]
N=C(N)NCCC[C@H](N)C(=O)O [Arginine, L-arginine] | 1.5 mM | 190 s⁻¹ and 190 ± 10 s⁻¹ | 75 s⁻¹ | 3.2 mM | 83 s⁻¹ | 10.8 mM | 188 ± 10 s⁻¹ | 32 ± 5 mM | 8.1 ± 1 s⁻¹ | 24 times | 20 ± 5 mM | – | – | – | – | – | – | – | –
NCCC[C@H](N)C(=O)O [Ornithine, L-ornithine] | – | – | – | – | – | – | – | – | – | – | – | Competitive | 2 ± 0.5 mM | 7.6 mM | 8.4 mM | mixed-type inhibition | 71 ± 12 mM | Competitive | 18 ± 6 mM
